Laboratory results as given in US6436939B2, “Method for using 2-aryloxyalkylaminobenzoxazoles and 2-aryloxyalkylaminobenzothiazoles as H3 antagonists” (Ortho-McNeil Pharmaceutical, Inc., priority 2000, dated 2002).
Where a name gives a salt, the structure may show the parent alone.

How the values were obtained:
[1] = molecular target: T1, human histamine H3 receptor (Homo sapiens, UniProt Q9Y5N1); experiment: [3H]-N-methylhistamine binding to membranes of H3 receptor-expressing SK-N-MC cells; settings: 0.8 nM [3H]-N-methylhistamine, 45 minutes at 25° C., SK-N-MC cell membranes; KI from IC50 with KD 800 pM
T1 construct: expressed in transfected cells; membranes prepared
T1 sequence (Q9Y5N1 whole entry): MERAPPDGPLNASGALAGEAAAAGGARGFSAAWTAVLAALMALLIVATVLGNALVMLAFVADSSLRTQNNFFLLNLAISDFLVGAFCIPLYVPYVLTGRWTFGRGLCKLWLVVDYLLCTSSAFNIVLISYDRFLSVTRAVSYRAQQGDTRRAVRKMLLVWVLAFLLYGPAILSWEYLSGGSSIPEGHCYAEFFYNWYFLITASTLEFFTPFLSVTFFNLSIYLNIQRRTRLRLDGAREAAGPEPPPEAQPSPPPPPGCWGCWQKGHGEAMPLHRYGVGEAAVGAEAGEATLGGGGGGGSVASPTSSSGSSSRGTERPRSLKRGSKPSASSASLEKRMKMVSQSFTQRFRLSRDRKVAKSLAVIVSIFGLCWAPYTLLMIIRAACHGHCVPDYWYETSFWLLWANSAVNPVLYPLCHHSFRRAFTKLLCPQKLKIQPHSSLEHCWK
Experimental: In the present invention receptor binding was determined using the human histamine H3 receptor (See Lovenberg et al Mol. Pharmacol. 1999, 1107). Screening using the human receptor is particularly important for the identification of new therapies for the treatment of human disease. Conventional binding assays for example are determined using rat synaptosomes (Garbarg et al J. Pharmacol. Exp. Ther. 1992, 263, 304), rat cortical membranes (West et al Mol. Pharmacol. 1990, 610), and guinea pig brain (Korte et al Biochem. Biophys. Res. Commun. 1990, 978). Only limited studies have been performed previously using human tissue but these allude to significant differences in the pharmacology of rodent and primate receptors (West et al Eur. J. Pharmacol. 1999, 233).
A 10 cm tissue culture dish with a confluent monolayer of SK-N-MC cells was split two days prior to transfection. Using sterile technique the media was removed and the cells were detached from the dish by the addition of trypsin. One fifth of the cells were then placed onto a new 10 cm dish. Cells were grown in a 37° C. incubator with 5% CO2 in Minimal Essential Media Eagle with 10% Fetal Bovine Serum. After two days cells were approximately 80% confluent. These were removed from the dish with trypsin and pelleted in a clinical centrifuge. The pellet was then re-suspended in 400 μL complete media and transferred to an electroporation cuvette with a 0.4 cm gap between the electrodes (Bio-Rad #165-2088). One microgram supercoiled H3 receptor CDNA was added to the cells and mixed. The voltage for the electroporation was set at 0.25 kV, the capacitance is set at 960 μF.
After electroporation the cells were diluted into 10 mL complete media and plated onto four 10 cm dishes. Due to the variability in the efficiency of electroporation, four different concentrations of cells were plated. The ratios used were: 1:20, 1:10, and 1:5, with the remainder of the cells being added to the fourth dish. The cells were allowed to recover for 24 hours before adding the selection media (complete media with 600 μg/ml G418). After 10 days dishes were analyzed for surviving colonies of cells. Dishes with well-isolated colonies were used. Cells from individual colonies were isolated and tested. SK-N-MC cells were used because they give efficient coupling for inhibition of adenylate cyclase. The clones that gave the most robust inhibition of adenylate cyclase in response to histamine were used for further study.
Cell pellets from histamine H3 receptor-expressing SK-N-MC cells were homogenized in 20 mM TrisHCl/0.5 mM EDTA. Supernatants from a 800 g spin were collected, reccentrifuged at 30,000 g for 30 minutes. Pellets were rehomogenized in 50 mM Tris/5 mM EDTA (pH 7.4). Membranes were incubated with 0.8 nM [^3H]-N-methylhistamine plus/minus test compounds for 45 minutes at 25° C. and harvested by rapid filtration over GF/C glass fiber filters (pretreated with 0.3% polyethylenimine) followed by four washes with ice cold buffer. Filters were dried, added to 4 mL scintillation cocktail and then counted on a liquid scintillation counter. Non-specific binding was defined with 10 μM histamine according to Chen and Prusoff, Biochem. Pharmacol. 1973, 22:3099. KI values were calculated based on a KD of 800 pM and a ligand concentration ([L]) of 800 pM according to the formula: […]
KI values are provided in the examples above.

| Compound | melting point [°C] | Ki [1] [µM] |
| --- | --- | --- |
| CCN(CC)CCCOc1ccc(/C=C/c2nc3ccccc3o2)cc1 (as salt: HCl) [Example 8, (E)-2-[2-(4-Diethylaminopropoxyphenyl)ethenyl]benzoxazole] | 225 to 226 |  |
| CCCN(CCC)CCCOc1ccc(-c2nc3ccccc3s2)cc1 (as salt: HCl) [Example 11, 2-(4-Dipropylaminopropoxyphenyl)benzothiazole] | 142 to 143 |  |
| CCN(CC)CCCOc1ccc(/C=C/c2nc3ccccc3o2)cc1 [Example 8, (E)-2-[2-(4-Diethylaminopropoxyphenyl)ethenyl]benzoxazole] |  | 0.031 |
| C(=C\c1nc2ccccc2o1)/c1ccc(OCCCCN2CCCC2)cc1 [Example 9, (E)-2-[2-(4-Pyrrolinobutoxyphenyl)ethenyl]benzoxazole] |  | 0.017 |
| C(=C\c1nc2ccccc2o1)/c1ccc(OCCCCN2CCCCC2)cc1 [Example 6, (E)-2-[2-(4-Piperidinobutoxyphenyl)ethenyl]benzoxazole] |  | 0.034 |
| C(=C\c1nc2ccccc2s1)/c1ccc(OCCCN2CCCCC2)cc1 (as salt: HCl) [Example 3, (E)-2-[2-(4-Piperidinopropoxyphenyl)ethenyl]benzothiazole] | 215 to 217 |  |
| CCN(CC)CCCCOc1ccc(/C=C/c2nc3ccccc3o2)cc1 (as salt: HCl) [Example 7, (E)-2-[2-(4-Diethylaminobutoxyphenyl)ethenyl]benzoxazole] | 219 to 220 |  |
| C(=C\c1nc2ccccc2s1)/c1ccc(OCCCN2CCCCC2)cc1 [Example 3, (E)-2-[2-(4-Piperidinopropoxyphenyl)ethenyl]benzothiazole] |  | 0.015 |
| C(=C\c1nc2ccccc2o1)/c1ccc(OCCCN2CCCCC2)cc1 (as salt: HCl) [Example 4, (E)-2-[2-[4-(3-Piperidinopropoxy)phenyl]ethenyl]benzoxazole] | 127 to 128 |  |
| C(=C\c1nc2ccccc2o1)/c1ccc(OCCCCN2CCCC2)cc1 (as salt: HCl) [Example 9, (E)-2-[2-(4-Pyrrolinobutoxyphenyl)ethenyl]benzoxazole] | 229 to 232 |  |
| CCCN(CCC)CCCOc1ccc(-c2nc3ccccc3s2)cc1 [Example 11, 2-(4-Dipropylaminopropoxyphenyl)benzothiazole] |  | 0.173 |
| C(=C\c1nc2ccccc2o1)/c1ccc(OCCCCN2CCCCC2)cc1 (as salt: HCl) [Example 6, (E)-2-[2-(4-Piperidinobutoxyphenyl)ethenyl]benzoxazole] | 230 to 232 |  |
| CCN(CC)CCCCOc1ccc(/C=C/c2nc3ccccc3o2)cc1 [Example 7, (E)-2-[2-(4-Diethylaminobutoxyphenyl)ethenyl]benzoxazole] |  | 0.048 |
| C(=C\c1nc2ccccc2o1)/c1ccc(OCCCN2CCCCC2)cc1 [Example 4, (E)-2-[2-[4-(3-Piperidinopropoxy)phenyl]ethenyl]benzoxazole] |  | 0.013 |
| CCCN(CCC)CCCCOc1c(C)cc(/C=C/c2nc3ccccc3s2)cc1C [Example 12, (E)-2-[2-(3,5-Dimethyl-4-dipropylaminobutoxyphenyl)ethenyl]benzothiazole] |  | 1 |
